Patent US11344521B2, “Methods for the treatment of leptomeningeal disease” (priority 2017, dated 2022)

Assay: Solubility in water
Assay type: physicochemical

NC(=O)C(CCC(=O)[O-])NC(=O)Cc1ccccc1.[Na+] (stereo not shown) [Iso-PG, phenylacetylisoglutaminate sodium]
solubility in water: soluble in water
